Data on ten compounds can be found in ChEMBL document CHEMBL1201862, “PubChem BioAssay data set” (2004).

The structures appear in SMILES notation.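 In this assay, cells in 96-well plates receive the compound at five concentrations for 48 hours. Endpoints are linearly interpolated between the surrounding concentrations. Abbreviation: GI50, concentration required for 50% inhibition of growth.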 Activity calls are given as the source filed them. Cut-off read from the data, not from the text of the source: active = GI50 up to about 1.1 µM and inactive = higher.

Holding throughout (assay): inhibition of tumour cell growth, NCI panel, 48 h
The test system of test [1] is A498.
The subject of test [2] is ACHN.
Test [3] deals with CCRF-CEM.
The test system of test [4] is HCC 2998.
In test [5] the test system is HL-60.
The subject of test [6] is HOP-92.
The test system of test [7] is KM12.
For test [8], the system named is LOX IMVI.
The subject of test [9] is MCF7.
Test [10] has as its system MDA-MB-231.
The subject of test [11] is NCI-H226.
For test [12], the system named is NCI-H460.
The test system of test [13] is OVCAR-3.
Test [14] has as its system OVCAR-5.
For test [15], the system named is SF-268.
The subject of test [16] is SK-MEL-28.
Test [17] concerns SNB-19.
In test [18] the test system is SNB-75.
Test [19] has as its system UACC-257.
The test system of test [20] is UO-31.

For `COC(=O)N/N=C(\C)C(CN1CCOCC1)C(c1ccccc1)c1cc2ccccc2oc1=O` (stereo not given), the GI50 in [1] was > 100 µM (inactive); in [2], > 100 µM (inactive); in test [3] it was 44.6 µM (inactive); in test [4], > 100 µM (inactive); in [5], 36.3 µM (inactive); in test [6], 30.5 µM (inactive). Further, the GI50 in [7], in test [8], in [9], in [10], in test [11] and in test [12] was > 100 µM (inactive) in each case. For the same compound, the GI50 in test [13], in [14], in test [15], in test [16], in test [17] and in test [18] was > 100 µM (inactive) throughout. The GI50 in [19] was 82.4 µM (inactive); in [20] it was > 100 µM (inactive).

As for `CCOC(=O)C(C(=O)c1ccccc1C(=O)OC)=P(c1ccccc1)(c1ccccc1)c1ccccc1`, the GI50 in test [1], in [2], in [3], in test [4], in test [5] and in test [6] was > 10 µM (inactive) in each case. The GI50 in test [7], in [8], in test [9], in test [10], in [11] and in [12] was > 10 µM (inactive) throughout. For the same compound, the GI50 in [13], in [14], in test [15], in test [16], in test [17] and in [18] was > 10 µM (inactive) throughout. The GI50 in test [19] and in [20] was > 10 µM (inactive) throughout.

Regarding `S=C(/N=c1\sc(NCc2ccccc2)nc2sc3c(c12)CCN(N1CCc2c(sc4nc(NCc5ccccc5)s/c(=N\C(=S)NCc5ccccc5)c24)C1)C3)NCc1ccccc1`, the GI50 was 52 µM (inactive) in [1]; 29.1 µM (inactive) in test [2]; 2.56 µM (inactive) in test [3]; 44.7 µM (inactive) in [4]; 25.4 µM (inactive) in [5]; 39.4 µM (inactive) in test [6]. For the same compound, the GI50 in [7] is 38 µM (inactive); in test [8] it was 15 µM (inactive); in [9] it was 15.8 µM (inactive); in test [10], 8.32 µM (inactive); in [11], 49.9 µM (inactive); in test [12], 54.8 µM (inactive). Moreover, the GI50 is 20.1 µM (inactive) in test [13]; 45 µM (inactive) in test [14]; 27.4 µM (inactive) in [15]; 63.4 µM (inactive) in test [16]; 28.2 µM (inactive) in [17]; 17.4 µM (inactive) in [18]. For the same compound, the GI50 in test [19] is 21.5 µM (inactive); in test [20], 15.4 µM (inactive).

Regarding `CC(=O)OCC1(C)C(O)CCC2(C)C1CCC1CC3CC12CCC3(O)CO` (stereo not given), the GI50 in test [1] is 0.541 µM (active); in test [2] it was 4.46 µM (inactive); in test [3], 9.77 µM (inactive); in test [4], 20.8 µM (inactive); in test [5], 6.35 µM (inactive); in [6], > 81.5 µM (inactive). Besides, the GI50 in test [7] is > 100 µM (inactive); in test [8], 44.3 µM (inactive); in test [9], > 100 µM (inactive); in test [10], > 100 µM (inactive); in test [11], > 100 µM (inactive); in [12], 6.75 µM (inactive). Besides, the GI50 in test [13] is > 100 µM (inactive); in [14], > 100 µM (inactive); in [15] it was > 80.2 µM (inactive); in test [16], > 100 µM (inactive); in [17], > 100 µM (inactive); in test [18] it was > 100 µM (inactive). Moreover, the GI50 was > 100 µM (inactive) in test [19] and 25 µM (inactive) in test [20].

Consider `O=C(Nc1nc(C23CC4CC(CC(C4)C2)C3)cs1)c1c(O)c2ccccc2[nH]c1=O`, for which the GI50 in test [1], in [2], in [3], in test [4], in test [5] and in test [6] was > 100 µM (inactive) throughout. Also, the GI50 is > 100 µM (inactive) in [7]; > 100 µM (inactive) in [8]; > 100 µM (inactive) in [9]; 78.9 µM (inactive) in [10]; > 100 µM (inactive) in [11]; > 100 µM (inactive) in test [12]. In addition, the GI50 in test [13] was > 100 µM (inactive); in [14], > 100 µM (inactive); in test [15], 23.3 µM (inactive); in test [16] it was > 100 µM (inactive); in test [17], > 100 µM (inactive); in test [18], > 10 µM (inactive). Moreover, the GI50 in [19] and in test [20] was > 100 µM (inactive) each time.

On to `Cc1c(C(=O)c2ccc(N)c3ccccc23)c2ccccc2n1CCN1CCOCC1`, for which the GI50 in test [1] is 29.3 µM (inactive); in [2] it was 31.4 µM (inactive); in [3], 2.9 µM (inactive); in test [4] it was 21.1 µM (inactive); in [5], 22.3 µM (inactive); in test [6], 21.9 µM (inactive). For the same compound, the GI50 in [7] is 3.38 µM (inactive); in test [8], 22.5 µM (inactive); in test [9], 21.2 µM (inactive); in test [10] it was 12.6 µM (inactive); in test [11] it was 32.1 µM (inactive); in [12], 3.4 µM (inactive). Besides, the GI50 was 15.7 µM (inactive) in [13]; 25.9 µM (inactive) in test [14]; 28.6 µM (inactive) in test [15]; 43.5 µM (inactive) in [16]; 21.5 µM (inactive) in test [17]; 2.62 µM (inactive) in [18]. Further, the values for the GI50 in [19] and in test [20] were 17.3 µM (inactive) and 25.5 µM (inactive), respectively.

As to `COc1ccccc1C(=O)N(Cc1ccccc1)c1ccc(Cl)c(C(=O)OC(C)C)c1`, the GI50 was 37.3 µM (inactive) in test [1]; 25 µM (inactive) in test [2]; 35.5 µM (inactive) in test [3]; 18.2 µM (inactive) in test [4]; 9.4 µM (inactive) in [5]; 6.67 µM (inactive) in [6]. In addition, the GI50 in [7] is 21.2 µM (inactive); in test [8] it was 28.2 µM (inactive); in test [9], 47.8 µM (inactive); in [10], 25.9 µM (inactive); in test [11] it was 13.6 µM (inactive); in [12] it was 21.4 µM (inactive). Moreover, the GI50 in test [13] is 17.7 µM (inactive); in test [14] it was > 63.1 µM (inactive); in test [15], 42.3 µM (inactive); in test [16], 41.7 µM (inactive); in test [17], 24.3 µM (inactive); in test [18], 19.7 µM (inactive). Moreover, the GI50 was 14.6 µM (inactive) in [19] and 7.71 µM (inactive) in test [20].

On to `NC(=O)CN1CC(C2=C(O)CN(CC(N)=O)C2=O)=CC1=O`, for which the GI50 in [1], in [2], in test [3], in test [4], in test [5] and in test [6] was > 100 µM (inactive) each time. In addition, the GI50 in [7], in test [8], in [9], in [10], in [11] and in test [12] was > 100 µM (inactive) in each case. Further, the GI50 in [13], in [14], in test [15], in [16], in test [17] and in test [18] was > 100 µM (inactive) throughout. For the same compound, the GI50 was > 100 µM (inactive) in test [19] and 85.7 µM (inactive) in [20].

As to `CCOC(=O)C1C(=O)CC(C)(O)C(C(=O)OCC)C1c1ccc(N(C)C)cc1` (stereo not given), the GI50 in test [1], in test [2], in test [3], in test [4], in [5] and in test [6] was > 100 µM (inactive) each time. Further, the GI50 in test [7], in [8], in test [9], in test [10], in test [11] and in test [12] was > 100 µM (inactive) in each case. The GI50 in test [13], in test [14], in test [15], in [16], in [17] and in test [18] was > 100 µM (inactive) in each case. Also, the GI50 in test [19] and in test [20] was > 100 µM (inactive) in each case.

As for `COC(=O)/C=C(/C(=O)OC)c1c(C)cc2c(C)cc(C)cc(C)c1-2`, the GI50 in test [1] is 26.4 µM (inactive); in [2] it was 20.4 µM (inactive); in test [3] it was 9.18 µM (inactive); in test [4], 16.4 µM (inactive); in [5] it was 4.13 µM (inactive); in test [6], 31.6 µM (inactive). For the same compound, the GI50 was 5.11 µM (inactive) in [7]; 11.7 µM (inactive) in [8]; 4.1 µM (inactive) in test [9]; 4.89 µM (inactive) in [10]; 21.1 µM (inactive) in test [11]; 19.9 µM (inactive) in test [12]. For the same compound, the GI50 in test [13] was 10.2 µM (inactive); in test [14], 18.9 µM (inactive); in test [15], 19.1 µM (inactive); in test [16] it was 24.3 µM (inactive); in test [17], 9.89 µM (inactive); in [18] it was 16.7 µM (inactive). Moreover, the GI50 in test [19] is 19.3 µM (inactive); in [20], 23 µM (inactive).
